One data set deals with LEDGF/p75-IN interaction. Also on record: method as in PMID 21222490. Conditions: cited from earlier work.
Details of data set [1]: method as in PMID 26810656. Conditions: previous study; read-out: half-maximal cytotoxic concentration (CC50); cited from earlier work.
Data set [2] relates to Tumor marker endothelial 8 and protective antigen interaction. The note with it: cited from earlier work.
In data set [3] the test system is Clostridium difficile cysteine protease domain. On the set-up: method as in Bender et al.[50]. The note with it: ref Bender et al.[50]; cited from earlier work.
The target in data set [4] is Bacillus anthracis thioredoxin reductase. Conditions: ref Gustafsson et al.[49]; cited from earlier work.
Data set [5] addresses Cryptosporidium parvum Inosine 5′-monophosphate dehydrogenase. On the set-up: method as in Sarwono et al.[54]. Conditions: ref Sarwono et al.[54]; cited from earlier work.
The target of data set [6] is New Delhi metallo-β-lactamase. Also on record: method as in Chiou et al.[51]. Conditions: ref Chiou et al.[51]; cited from earlier work.
In data set [7] the test system is Escherichia coli thioredoxin reductase. On the set-up: method as in Lu et al.[48]. The note with it: cell marked (Ki); ref Lu et al.[48]; cited from earlier work.
The subject of another data set is HIV-1. On the set-up: method as in PMID 26810656. Conditions: previous study; read-out: 50% effective concentration (EC50), replication of HIV-1; cited from earlier work.
The target in data set [8] is T1, LEDGF/p75 IBD-HIV-1 IN interaction (Homo sapiens, UniProt O75475).
T1 sequence (O75475 347-429 limits assumed): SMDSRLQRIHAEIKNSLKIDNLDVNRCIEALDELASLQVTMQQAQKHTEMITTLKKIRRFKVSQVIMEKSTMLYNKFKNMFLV
Kind of data set: HTRF-based LEDGF/p75 IBD-IN interaction assay.

The test system of data set [9] is Hepatitis C Virus NS3 Helicase-Nucleic Acid interaction. Also on record: method as in Mukherjee et al.[53]. Conditions: ref Mukherjee et al.[53], cited from earlier work.
Data set [10] deals with C-terminal domain of HIV-1 capsid. Also on record: method as in Thenin-Houssier et al.[39]. Conditions: ref Thenin-Houssier et al.[39]; cited from earlier work.
Data set [11] has as its target Cryptosporidium parvum glucose-6-phosphate isomerase. Also on record: method as in Eltahan et al.[46]. Conditions: ref Eltahan et al.[46]; cited from earlier work.
For data set [12], the target named is Trypanosoma brucei hexokinase 1. On the set-up: method as in Gordhan et al.[47]. The note with it: ref Gordhan et al.[47]; cited from earlier work.
For data set [13], the system named is Pseudomonas aeruginosa Diguanylate Cyclases. Also on record: method as in Lieberman et al.[55]. The note with it: ref Lieberman et al.[55]; cited from earlier work.
A further data set has as its target LEDGF/p75 (Homo sapiens, UniProt O75475). Kind of data set: Biolayer interferometry (BLI) binding assay. The protocol: A protein binding assay was performed by biolayer interferometry (BLI) as described previously. First, purified recombinant LEDGF/p75 protein was biotinylated using the Thermo EZLink long-chain biotinylation reagent. Then, biolayer interferometry (BLI) assay was performed using an OctetRED96 instrument from PALL/ForteBio. All assays were run at 30 °C with continuous 1000 rpm shaking. PBS with 0.01% Tween-20 was used as the assay buffer. Briefly, biotinylated LEDGF/p75 protein was tethered on Super Streptavidin (SSA) biosensors (ForteBio) by dipping sensors into 200 µl per well 50 µg/ml protein solutions. The measurement processes were all under computer control. Programme procedures were established as follows: For the initial step, biosensors were washed in assay buffer for 300 s to form a baseline; the biosensors labelled with biotin-LEDGF/p75 were exposed to 100 µM compounds for association, and were monitored for 600 s; and then, the biosensors were moved back into assay buffer to disassociate for another 1800s. Data were fit globally and generated automatically by Octet User software (version 9.0.0.10; Fortebio).
(In general: Biolayer interferometry detects binding as a change in optical thickness at a sensor tip.)

Data set [14] deals with Mycobacterium tuberculosis antigen 85. On the set-up: method as in Favrot et al.[52]. Conditions: ref Favrot et al.[52]; cited from earlier work.

We go through 7 molecules from PMC7170385, “The selenium-containing drug ebselen potently disrupts LEDGF/p75-HIV-1 integrase interaction by targeting LEDGF/p75” (Journal of Enzyme Inhibition and Medicinal Chemistry, 2020).

The term IC50 denotes the midpoint of a concentration-inhibition curve. One may read the Ki as a dissociation constant, usually derived from enzyme kinetics or from competition with a known ligand. As usually defined, the Kd is the concentration at which binding is half-saturated.

The structures appear in SMILES notation. Read-outs that look alike come from different tables or passages of the source.

Sequence of LEDGF/p75 (O75475 whole entry): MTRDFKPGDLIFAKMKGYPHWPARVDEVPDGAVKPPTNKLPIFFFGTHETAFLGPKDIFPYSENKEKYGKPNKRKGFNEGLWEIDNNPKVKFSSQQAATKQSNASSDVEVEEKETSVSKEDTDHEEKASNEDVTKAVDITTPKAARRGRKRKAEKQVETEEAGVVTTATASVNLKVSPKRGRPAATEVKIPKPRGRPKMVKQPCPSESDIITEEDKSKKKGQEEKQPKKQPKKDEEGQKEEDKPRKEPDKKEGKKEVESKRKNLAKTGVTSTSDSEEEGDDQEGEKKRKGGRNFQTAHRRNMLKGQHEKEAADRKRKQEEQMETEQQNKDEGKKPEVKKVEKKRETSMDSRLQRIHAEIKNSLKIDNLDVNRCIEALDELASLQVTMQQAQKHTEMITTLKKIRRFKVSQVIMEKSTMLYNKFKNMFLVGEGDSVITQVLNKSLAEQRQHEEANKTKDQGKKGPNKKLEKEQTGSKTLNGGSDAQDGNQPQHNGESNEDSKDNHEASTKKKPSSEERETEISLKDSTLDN

As to `O[C@@H](CS)[C@@H](O)CS` (racemic) [DTT, dithiothreitol], in the data set with LEDGF/p75-IN interaction (at 50 µM), the “Inhibitory effect of DTT on LEDGF/p75-IN interaction” value is reported as “negligible”. Besides, the 50% inhibitory concentration (IC50) in the data set with LEDGF/p75-IN interaction was 4500 µM.

As to `O=c1c2ccccc2[se]n1-c1ccccc1` [Compound 1, 2-phenyl-1,2-benzisoselenazol-3-one], the CC50 in data set [1] was 25.4 µM. Also, the IC50 in [2] was 1.7 µM; in data set [3] it was 0.0069 µM; in data set [4], 1 µM; in [5] it was 0.71 µM; in data set [6] it was 0.38 µM; in data set [8], 7700 nM. Also, the IC50 in data set [9] (first value of cell 1.1/0.9, difference not explained, read-out: IC50 (first of two values printed)) was 1.1 µM; in data set [9] (second value of cell 1.1/0.9, difference not explained, read-out: IC50 (second of two values printed)) it was 0.9 µM; in data set [10] it was 0.047 µM; in data set [11], 8.33 µM; in [12], 0.05 µM; in [13], 5 µM. For the same molecule, the IC50 in data set [14] was 0.063 µM. In data set [7], the Ki was 0.52 µM. The EC50 with HIV-1 was 1.99 µM. Further, the “HTRF signal when IBD was pre-incubated with compound” value in data set [8] (IBD pre-incubated with ebselen) is on record as “dramatical decrease”. In addition, the “HTRF signal when IN was pre-incubated with compound” value in data set [8] (IN pre-incubated with ebselen) is “no obvious signal change”. For the same molecule, the “Inhibitory effect on LEDGF/p75 IBD-IN interaction in the presence of DTT” value in data set [8] (in the presence of 50 µM dithiothreitol (DTT)) is given as “completely abolished”. In data set [8] (over 1 h), the “Time-dependent inhibition (change of affinity over time)” value is “increase in its affinity”. The same molecule gave a Kd on LEDGF/p75 (BLI Octet Red, biotinylated LEDGF/p75, 30 °C) of 0.0133 µM. Moreover, on LEDGF/p75 (BLI, dissociation in assay buffer 1800 s), the “Dissociation from LEDGF/p75” value is given as “do not show obvious dissociation”.

`COc1cc(/C=C/C(=O)CC(=O)/C=C/c2ccc(O)c(OC)c2)ccc1O` [Compound 2, Curcumin] returned an IC50 in data set [8] of 14500 nM.

In data set [8], `O=S(=O)(c1c(O)c(Cl)cc(Cl)c1Cl)c1c(O)c(Cl)cc(Cl)c1Cl` [Compound 3, p38 MAP kinase inhibitor IV] returned an IC50 of 117000 nM.

For `CCN(CC)C(=S)SSC(=S)N(CC)CC` [Disulfiram], the IC50 in [8] came out at 23200 nM.

The molecule `NC(=O)CI` [Iodoacetamide] yielded an IC50 in data set [8] (HTRF, 12-point dose-response 0.024 to 50 µM, His6-HIV-1 IN 50 nM, GST-IBD) above 1e+07 nM.

`CCN1C(=O)C=CC1=O` [N-Ethylmaleimide] had an IC50 in data set [8] of 566000 nM.
